Data on 68 compounds can be found in patent US20090099192A1, “Substituted 1H-pyrrole-2,5-diones” (Bayer CropScience AG, priority 2004, published 2009).

Each structure is given as a SMILES string.

This data set can be described thus: logP determination by HPLC on reversed-phase column (C 18), EEC Directive 79/831 Annex V.A8. The data set is classed as physicochemical. As to conditions: reversed-phase C 18, 43° C., acid range (0.1% aqueous phosphoric acid, acetonitrile), marked a). How it is done:
a) The logP values given in table 1 were determined in accordance with EEC Directive 79/831 Annex V.A8 by HPLC (High Performance Liquid Chromatography) on a reversed-phase column (C 18). Temperature: 43° C. (a) Mobile phases for the determination in the acid range: 0.1% aqueous phosphoric acid, acetonitrile; linear gradient from 10% acetonitrile to 90% acetonitrile—corresponding measurement results are marked a) in table 1. Calibration was carried out using unbranched alkan-2-ones (having 3 to 16 carbon atoms) with known logP values (determination of the logP values by the retention times using linear interpolation between two successive alkanones).
Turning to `Cc1ccc(-c2ccc(Cl)cc2)cc1C1=C(O)C(=O)N(C(C)c2ccccc2Cl)C1=O` (racemic) [Example 136], the logP entry was “logP = 4.75^a)”.

For the compound `Cc1ccc(-c2ccc(Cl)cc2)cc1C1=C(O)C(=O)N(C(C)c2cccc(Cl)c2)C1=O` (racemic) [Example 141], the logP result is listed as “logP = 4.84^a)”.

As to `CCOC(=O)C1(N2C(=O)C(O)=C(c3ccccc3Cl)C2=O)CCC(OC)CC1` (single isomer, unassigned) [Example 149], the logP result was “logP = 2.76^a)”.

Turning to `CCOC(=O)C1(N2C(=O)C(O)=C(c3ccccc3Cl)C2=O)CCC(OC)CC1` (single isomer, unassigned) [Example 151], the logP result is “logP = 2.53^a)”.

On to `Cc1cc(C)c(C2=C(OC(=O)C(C)(C)C(C)C)C(=O)N(C(C)C)C2=O)c(C)c1` [Example 20], for which the logP entry is listed as “logP = 5.87^a)”.

For the compound `O=C1C(O)=C(c2ccccc2Cl)C(=O)N1C1CCCCC1` [Example 22], the logP entry is reported as “logP = 3.17^a)”.

In the case of `CC(C)(C)C(=O)OC1=C(c2ccccc2Cl)C(=O)N(C2CCCCC2)C1=O` [Example 23], the logP entry is given as “logP = 5.39^a)”.

Regarding `O=C1C(O)=C(c2ccccc2Cl)C(=O)N1c1ccccc1` [Example 24], the logP result is listed as “logP = 2.43^a)”.

On to `O=C1C(O)=C(c2ccccc2Cl)C(=O)N1c1ccccc1C(F)(F)F` [Example 25], for which the logP entry was “logP = 2.60^a)”.

In the case of `O=C1C(O)=C(c2ccccc2Cl)C(=O)N1c1cccc(C(F)(F)F)c1` [Example 26], the logP entry is on record as “logP = 3.04^a)”.

Take `O=C1C(O)=C(c2ccccc2Cl)C(=O)N1c1ccc(C(F)(F)F)cc1` [Example 27]: the logP entry is “logP = 3.10^a)”.

In the case of `CC(C)(C)C(=O)OC1=C(c2ccccc2Cl)C(=O)N(c2ccccc2)C1=O` [Example 28], the logP entry is on record as “logP = 4.37^a)”.

Take `CCOc1ccc(N2C(=O)C(O)=C(c3ccccc3Cl)C2=O)nn1` [Example 29]: the logP result is “logP = 1.82^a)”.

As to `O=C1C(O)=C(c2cccc(C(F)(F)F)c2)C(=O)N1CC(F)(F)F` [Example 38], the logP result is reported as “logP = 2.70^a)”.

On to `O=C1C(O)=C(c2ccc(OC(F)(F)F)cc2)C(=O)N1CC(F)(F)F` [Example 39], for which the logP entry was “logP = 3.04^a)”.

With `N#Cc1ccc(C2=C(O)C(=O)N(CC(F)(F)F)C2=O)cc1` [Example 40], the logP entry is given as “logP = 1.94^a)”.

For the compound `O=C1C(O)=C(c2ccc(Cl)cc2)C(=O)N1CC(F)(F)F` [Example 41], the logP entry was “logP = 2.82^a)”.

Take `O=C1C(O)=C(c2cccc(OC(F)(F)F)c2)C(=O)N1CC(F)(F)F` [Example 42]: the logP result is “logP = 2.82^a)”.

Consider `O=C1C(O)=C(c2cc(Cl)cc(Cl)c2)C(=O)N1CC(F)(F)F` [Example 43], for which the logP result is “logP = 2.67^a)”.

As for `O=C1C(O)=C(c2c(F)cccc2F)C(=O)N1CCC(F)(F)F` [Example 44], the logP entry is recorded as “logP = 2.14^a)”.

As for `O=C1C(O)=C(c2ccc(C(F)(F)F)cc2)C(=O)N1CCC(F)(F)F` [Example 47], the logP result was “logP = 3.06^a)”.

`O=C1C(O)=C(c2cccc(OC(F)(F)F)c2)C(=O)N1CCC(F)(F)F` [Example 48]: the logP result is “logP = 3.30^a)”.

Take `O=C1C(O)=C(c2cc(Cl)cc(Cl)c2)C(=O)N1CCC(F)(F)F` [Example 49]: the logP result is given as “logP = 2.94^a)”.

Turning to `O=C1C(O)=C(c2c(F)cccc2F)C(=O)N1c1ccc(OC(F)(F)F)cc1` [Example 50], the logP result is “logP = 2.80^a)”.

For the compound `O=C1C(O)=C(c2ccccc2F)C(=O)N1c1ccc(OC(F)(F)F)cc1` [Example 51], the logP entry is on record as “logP = 3.13^a)”.

For the compound `O=C1C(O)=C(c2ccccc2Cl)C(=O)N1c1ccc(OC(F)(F)F)cc1` [Example 52], the logP result is “logP = 3.27^a)”.

With `O=C1C(O)=C(c2cccc(C(F)(F)F)c2)C(=O)N1c1ccc(OC(F)(F)F)cc1` [Example 53], the logP entry is “logP = 3.75^a)”.

As to `N#Cc1ccc(C2=C(O)C(=O)N(c3ccc(OC(F)(F)F)cc3)C2=O)cc1` [Example 54], the logP result was “logP = 2.70^a)”.

For `O=C1C(O)=C(c2ccc(Cl)cc2)C(=O)N1c1ccc(OC(F)(F)F)cc1` [Example 55], the logP entry was “logP = 3.83^a)”.

`O=C1C(O)=C(c2cc(Cl)cc(Cl)c2)C(=O)N1c1ccc(OC(F)(F)F)cc1` [Example 57]: the logP result was “logP = 3.56^a)”.

On to `O=C1C(O)=C(c2c(F)cccc2F)C(=O)N1c1ccc(Cl)cc1` [Example 58], for which the logP entry was “logP = 2.45^a)”.

For `O=C1C(O)=C(c2ccccc2F)C(=O)N1c1ccc(Cl)cc1` [Example 59], the logP entry was “logP = 2.76^a)”.

Consider `O=C1C(O)=C(c2ccccc2Cl)C(=O)N1c1ccc(Cl)cc1` [Example 60], for which the logP result is reported as “logP = 2.89^a)”.

Take `O=C1C(O)=C(c2cccc(C(F)(F)F)c2)C(=O)N1c1ccc(Cl)cc1` [Example 61]: the logP entry is given as “logP = 3.45^a)”.

Consider `O=C1C(O)=C(c2ccc(OC(F)(F)F)cc2)C(=O)N1c1ccc(Cl)cc1` [Example 62], for which the logP result is “logP = 3.80^a)”.

Regarding `O=C1C(O)=C(c2ccc(Cl)cc2)C(=O)N1c1ccc(Cl)cc1` [Example 63], the logP entry is “logP = 3.51^a)”.

As for `O=C1C(O)=C(c2ccc(C(F)(F)F)cc2)C(=O)N1c1ccc(Cl)cc1` [Example 64], the logP result is reported as “logP = 3.35^a)”.

In the case of `O=C1C(O)=C(c2cccc(OC(F)(F)F)c2)C(=O)N1c1ccc(Cl)cc1` [Example 65], the logP entry is given as “logP = 3.59^a)”.

Turning to `O=C1C(O)=C(c2c(F)cccc2F)C(=O)N1c1ccc(C(F)(F)F)cc1` [Example 66], the logP entry is on record as “logP = 3.48^a)”.

For the compound `O=C1C(O)=C(c2ccccc2F)C(=O)N1c1ccc(C(F)(F)F)cc1` [Example 67], the logP entry is “logP = 3.01^a)”.

As for `O=C1C(O)=C(c2cccc(C(F)(F)F)c2)C(=O)N1c1ccc(C(F)(F)F)cc1` [Example 68], the logP entry was “logP = 3.59^a)”.

For the compound `N#Cc1ccc(C2=C(O)C(=O)N(c3ccc(C(F)(F)F)cc3)C2=O)cc1` [Example 69], the logP entry is on record as “logP = 2.80^a)”.

As to `O=C1C(O)=C(c2ccc(Cl)cc2)C(=O)N1c1ccc(C(F)(F)F)cc1` [Example 70], the logP entry is listed as “logP = 3.70^a)”.

Take `O=C1C(O)=C(c2cccc(OC(F)(F)F)c2)C(=O)N1c1ccc(C(F)(F)F)cc1` [Example 71]: the logP result was “logP = 3.75^a)”.

For the compound `O=C1C(O)=C(c2cc(Cl)cc(Cl)c2)C(=O)N1c1ccc(C(F)(F)F)cc1` [Example 72], the logP entry is recorded as “logP = 3.42^a)”.

Turning to `O=C1C(O)=C(c2ccccc2F)C(=O)N1c1cc(Cl)cc(Cl)c1` [Example 73], the logP entry is on record as “logP = 3.20^a)”.

`O=C1C(O)=C(c2cccc(C(F)(F)F)c2)C(=O)N1c1cc(Cl)cc(Cl)c1` [Example 75]: the logP result was “logP = 3.78^a)”.

On to `O=C1C(O)=C(c2ccc(OC(F)(F)F)cc2)C(=O)N1c1cc(Cl)cc(Cl)c1` [Example 76], for which the logP entry was “logP = 4.15^a)”.

Regarding `N#Cc1ccc(C2=C(O)C(=O)N(c3cc(Cl)cc(Cl)c3)C2=O)cc1` [Example 77], the logP entry was “logP = 2.80^a)”.

Consider `O=C1C(O)=C(c2ccc(Cl)cc2)C(=O)N1c1cc(Cl)cc(Cl)c1` [Example 78], for which the logP entry is listed as “logP = 3.94^a)”.

As to `O=C1C(O)=C(c2ccc(C(F)(F)F)cc2)C(=O)N1c1cc(Cl)cc(Cl)c1` [Example 79], the logP result was “logP = 3.75^a)”.

As for `O=C1C(O)=C(c2cccc(OC(F)(F)F)c2)C(=O)N1c1cc(Cl)cc(Cl)c1` [Example 80], the logP entry is listed as “logP = 3.94^a)”.

For `Cc1cc(C)c(C2=C(O)C(=O)N(Cc3ccc(OC(F)(F)F)cc3)C2=O)c(C)c1` [Example 81], the logP entry is “logP = 4.24^a)”.

Consider `O=C1C(O)=C(c2c(F)cccc2F)C(=O)N1Cc1ccc(OC(F)(F)F)cc1` [Example 82], for which the logP entry is “logP = 3.16^a)”.

As for `O=C1C(O)=C(c2ccccc2F)C(=O)N1Cc1ccc(OC(F)(F)F)cc1` [Example 83], the logP entry is given as “logP = 3.45^a)”.

Turning to `O=C1C(O)=C(c2ccccc2Cl)C(=O)N1Cc1ccc(OC(F)(F)F)cc1` [Example 84], the logP entry is recorded as “logP = 3.56^a)”.

In the case of `O=C1C(O)=C(c2cccc(C(F)(F)F)c2)C(=O)N1Cc1ccc(OC(F)(F)F)cc1` [Example 85], the logP result is on record as “logP = 4.15^a)”.

With `O=C1C(O)=C(c2ccc(OC(F)(F)F)cc2)C(=O)N1Cc1ccc(OC(F)(F)F)cc1` [Example 86], the logP entry is “logP = 4.48^a)”.

`N#Cc1ccc(C2=C(O)C(=O)N(Cc3ccc(OC(F)(F)F)cc3)C2=O)cc1` [Example 87]: the logP entry is given as “logP = 2.85^a)”.

Regarding `O=C1C(O)=C(c2ccc(Cl)cc2)C(=O)N1Cc1ccc(OC(F)(F)F)cc1` [Example 88], the logP entry is “logP = 4.27^a)”.

As for `O=C1C(O)=C(c2ccc(C(F)(F)F)cc2)C(=O)N1Cc1ccc(OC(F)(F)F)cc1` [Example 89], the logP result is reported as “logP = 4.03^a)”.

`O=C1C(O)=C(c2cccc(OC(F)(F)F)c2)C(=O)N1Cc1ccc(OC(F)(F)F)cc1` [Example 90]: the logP entry is listed as “logP = 4.30^a)”.

`O=C1C(O)=C(c2cc(Cl)cc(Cl)c2)C(=O)N1Cc1ccc(OC(F)(F)F)cc1` [Example 91]: the logP result was “logP = 4.12^a)”.

In the case of `Cc1ccc(C2=C(O)C(=O)N(Cc3ccc(OC(F)(F)F)cc3)C2=O)cc1` [Example 92], the logP result is recorded as “logP = 4.27^a)”.

For `Cc1cc(C)c(C2=C(O)C(=O)N(Cc3ccccc3F)C2=O)c(C)c1` [Example 93], the logP result is listed as “logP = 3.51^a)”.

Consider `O=C1C(O)=C(c2c(F)cccc2F)C(=O)N1Cc1ccccc1F` [Example 94], for which the logP result is “logP = 2.49^a)”.

For the compound `O=C1C(O)=C(c2ccccc2F)C(=O)N1Cc1ccccc1F` [Example 95], the logP result is reported as “logP = 2.82^a)”.

As for `O=C1C(O)=C(c2cccc(C(F)(F)F)c2)C(=O)N1Cc1ccccc1F` [Example 96], the logP result is listed as “logP = 3.48^a)”.
